# Test results reported in US20190364896A1, “SYNERGISTIC WEED CONTROL FROM APPLICATIONS OF PYRIDINE CARBOXYLIC ACID HERBICIDES AND ALS INHIBITORS” (Dow AgroSciences LLC, priority 2014, published 2019).
# “And” between values parts separate entries of the source, which are not always exact repeats. Equal entries are not always repeated. Where two headings read alike, the source gives them in different places.
# Key:
# Assay in all cases: Postemergence herbicidal activity, greenhouse trial (visual injury 0-100%)
# Format in all cases: in vivo
# [1] = system: nutsedge (Cyperus esculentus, CYPES)
# In short: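 Greenhouse-grown plants at the second to third true leaf stage were sprayed with two-way mixtures in 1.5% v/v Agri-dex crop oil concentrate at 187 L/ha; rates in g ae/ha for component (a) and g ai/ha for component (b). Injury scored visually 0–100% versus solvent-blank controls after 20–22 d, with expected mixture effects from Colby's equation.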
# [2] = system: kochia (Kochia scoparia, KCHSC); conditions: Bassia scoparia, post-emergence, read-out: % visual injury Obs
# In short: (§1)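 Herbicide mixtures (an EC-formulated compound plus a partner herbicide) are sprayed at 187 L/ha on greenhouse plants at the second or third true leaf stage, with rates in g ae/ha for (a) and g ai/ha for (b).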
# [3] = system: thistle (Cirsium arvense, CIRAR)
# In short: as §1
# [4] = system: wild buckwheat (Polygonum convolvulus, POLCO); conditions: Fallopia convolvulus, post-emergence, read-out: % visual injury Obs
# In short: as §1
# [5] = system: wild pansy (Viola tricolor, VIOTR); conditions: Viola tricolor, post-emergence, read-out: % visual injury Obs
# In short: as §1
# [6] = system: sunflower (Helianthus annuus, HELAN)
# [7] = system: velvetleaf (Abutilon theophrasti, ABUTH)
structure (smiles),measurement,setting,value
Nc1c(F)c(-c2ccc3cc[nH]c3c2F)nc(C(=O)O)c1Cl [Compound 1],% visual injury Obs,"[1]; CYPES, Compound 1 5 g ae/ha",10%
same,pest or weed control at 5 g/ha,"[1]; Cyperus, post-emergence, 5 g ae/ha, read-out: % visual injury Obs",10%
same,pest or weed control at 5 g/ha,[2]; 5 g ae/ha,65%
same,pest or weed control at 10 g/ha,[2]; 10 g ae/ha,60%
same,pest or weed control at 5 g/ha,"[2]; KCHSC, Compound 1 5 g ae/ha",60%
same,pest or weed control at 10 g/ha,"[2]; KCHSC, Compound 1 10 g ae/ha",60%
same,% visual injury Obs,"[3]; CIRAR, Compound 1 5 g ae/ha",10%
same,pest or weed control at 5 g/ha,"[3]; Cirsium arvense, post-emergence, 5 g ae/ha, read-out: % visual injury Obs",10%
same,pest or weed control at 5 g/ha,[4]; 5 g ae/ha,70%
same,pest or weed control at 5 g/ha,"[4]; POLCO, Compound 1 5 g ae/ha",65%
same,pest or weed control at 10 g/ha,[5]; 10 g ae/ha,10%
same,pest or weed control at 10 g/ha,"[5]; VIOTR, Compound 1 10 g ae/ha",10%
same,% visual injury Obs,[6]; 5 g ae/ha,90%
same,% visual injury Obs,[6]; 10 g ae/ha,90%
same,% visual injury Obs,"[6]; HELAN, Compound 1 5 g ae/ha",70%
same,% visual injury Obs,[7]; 5 g ae/ha,50% and 70%
same,% visual injury Obs,[7]; 10 g ae/ha,60%
same,% visual injury Obs,"[7]; ABUTH, Compound 1 5 g ae/ha",70%
"CCCOc1nn(C(=O)NS(=O)(=O)c2ccccc2C(=O)OC)c(=O)n1C [Propoxycarbazone, propoxycarbazone]",pest or weed control at […],"[1]; Cyperus, post-emergence, 7.5 g ai/ha, read-out: % visual injury Obs",75%
same,pest or weed control at […],[2]; 7.5 g ai/ha,30%
same,pest or weed control at […],"[3]; Cirsium arvense, post-emergence, 7.5 g ai/ha, read-out: % visual injury Obs",75%
same,pest or weed control at […],[4]; 7.5 g ai/ha,10%
same,pest or weed control at […],[5]; 7.5 g ai/ha,20%
same,% visual injury Obs,[6]; 7.5 g ai/ha,85%
same,% visual injury Obs,[7]; 7.5 g ai/ha,50%
